Legend:
[1] = three months intracavernous injections three times a week; cited from earlier work
[2] = tested on: segments of rat iliac arteries; assay: microvascular outgrowth from rat iliac artery ringlets cultured in Matrigel; format: cell-based, Sprague-Dawley rats
Description: Each sample was placed on a reduced-growth factor Matrigel coated coverglass slide in a culture dish filled with serum-free medium. […] The cultures were incubated at 37° C. in a humidified atmosphere with 5% CO2. Digital photographs were taken of growth after 96 hours.
Growth Factor Reduced Matrigel (Passaniti, A., et al., Lab. Invest. 1992 67:518-528) was purchased from Becton Dickinson (Mountain View, Calif.). Cell culture grade PGE1 was purchased from Sigma Chemical. (St. Louis, Mo.). RPIM-1640 and other cell culture reagents were purchased from GIBCO Invitrogen Corp. (Grand Island, N.Y.).
Male Sprague-Dawley rats, two-months old, were used in this study. All animal care, treatments, and procedures were approved by the institutional Committee on Animal Research. The rats were sacrificed by intraperitoneal injection of sodium pentobarbital (50 mg/kg) followed by bilateral thoracotomy and the removal of segments of iliac arteries.
The iliac artery segments isolated from Sprague-Dawley rats were sectioned into ringlets and cultured attached to Matrigel-coated glass coverslips. The coverslips were used as the supporting platform to facilitate samples processing for histological staining and examination. Coverslips were coated as follows. Growth Factor Reduced Matrigel (Becton Dickinson, Mountain View, Calif.) was diluted 3-fold in serum-free RPMI-1640 in a 35-mm culture dish on ice. The diluted Matrigel was then spread onto cold sterilized glass coverslips using a sterilized glass slide as spreader. The coated coverslips were placed in 35-mm culture dishes and incubated at 37° C. for 1 hr to allow the Matrigel to solidify. Iliac artery ringlets were placed on top of Matrigel coated coverslips and covered by 50 μl cold Growth Factor Reduced Matrigel which had been kept in liquid form. After a 5-min incubation at 37° C. to allow the Matrigel to polymerize, 3 ml of serum-free RPMI 1640 medium supplemented with 1×penicillin-streptomycin-fangizone (Cell Culture Facility, University of California, San Francisco) was added. […] The iliac artery ringlet cultures were maintained at 37 ° C. in a humidified atmosphere with 5% CO2.
After 96 hours of incubation, the iliac artery ringlet cultures were examined. Microvascular growths were photographed using a professional DCS-420 digital camera (Eastman Kodak, Rochester, N.Y.) connected to an Olympus microscope and an Apple Macintosh PowerMac computer. All samples were photographed and the images were stored for later analysis. The digital images were analyzed using ChemiImager 4000 software (Alpha Innotech Corporation, San Leandro, Calif.) to determine the maximum length of the microvascular growths.
Statistical analysis was performed using computer software from Primer of Biostatistics, 3rd ed. (Glantz SA, McGraw-Hill, Inc. New York, 1992). The data involving different time points were first analyzed by one-way analysis of variance (ANOVA). If ANOVA indicated a significant difference, the Student-Neuman-Keuls test was used to perform pair-wise comparisons.

[3] = three months intracavernous injections three times a week; patients completing treatment; cited from earlier work
VEGF = details: systemic treatment of patients; cited from earlier work
endothelial cells = details: in vitro; cited from earlier work
EP2 receptor = EP2 receptor (Mus musculus, UniProt Q62053); details: read-out: affinity for the EP2 receptor; cited from earlier work
Chain of EP2 receptor (Q62053 whole entry): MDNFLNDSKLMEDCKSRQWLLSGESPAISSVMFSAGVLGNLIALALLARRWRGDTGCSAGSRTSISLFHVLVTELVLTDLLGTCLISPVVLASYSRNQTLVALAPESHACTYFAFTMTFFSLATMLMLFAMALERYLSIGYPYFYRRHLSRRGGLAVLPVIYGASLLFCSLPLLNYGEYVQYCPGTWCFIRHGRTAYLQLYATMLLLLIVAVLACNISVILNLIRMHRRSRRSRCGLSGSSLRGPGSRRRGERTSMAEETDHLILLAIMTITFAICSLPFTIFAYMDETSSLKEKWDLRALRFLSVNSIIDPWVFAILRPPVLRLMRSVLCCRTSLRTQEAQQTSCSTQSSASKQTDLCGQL

| Compound | recovery of spontaneous erections [1] | responsiveness to oral sildenafil therapy [1] | peak microvascular growth ([2]; 1 μM PGE1) [micrometers] | Length of longest microvascular growth ([2]; 1 μM PGE1, 96 hours) [μm] | Length of longest microvascular growth ([2]; 10 μM PGE1, 96 hours) [μm] | Length of longest microvascular growth ([2]; 20 μM PGE1, 96 hours) [μm] | Length of longest microvascular growth ([2]; 30 μM PGE1, 96 hours) [μm] | Length of longest microvascular growth ([2]; 60 μM PGE1, 96 hours) [μm] | effect on microvascular outgrowth ([2]; primary cultures of rat iliac artery segments) | patients reporting recovery of spontaneous erections sufficient for intercourse [3] | effect on VEGF expression (VEGF) | effect on VEGF (endothelial cells) | Kd (EP2 receptor) [µM] |
| --- | --- | --- | --- | --- | --- | --- | --- | --- | --- | --- | --- | --- | --- |
| Prostaglandin E1 [PGE1] | more likely to recover spontaneous erections | more likely to be responsive to oral sildenafil therapy | 680 | 680 | 360 | 100 | 30 | 5 | enhance microvascular outgrowth | 8 of the 12 | up-regulate expression of VEGF |  |  |
| CCCCC[C@H](O)/C=C/[C@H]1[C@H](O)CC(=O)[C@@H]1C/C=C\CCCC(=O)O [PGE2, prostaglandin E2] |  |  |  |  |  |  |  |  |  |  |  | up-regulate VEGF | ~0.01 |
